Measured values as given in ChEMBL document CHEMBL1201862, “PubChem BioAssay data set” (2004).
Activity calls are given as the source filed them.

Experiments:
[1] = cells; type: functional, cell-based
[2] = cells; type: functional, cell-based; remark: listed apart in the source
[3] = target: T1, Leucine aminopeptidase (Plasmodium falciparum 3D7, UniProt Q8IL11); experiment: P. falciparum M17LAP inhibitors, primary screen, biochemical, fluorogenic H-Leu-NHMec substrate, 1536-well (AID 1619); type: functional
T1 sequence (Q8IL11 whole entry): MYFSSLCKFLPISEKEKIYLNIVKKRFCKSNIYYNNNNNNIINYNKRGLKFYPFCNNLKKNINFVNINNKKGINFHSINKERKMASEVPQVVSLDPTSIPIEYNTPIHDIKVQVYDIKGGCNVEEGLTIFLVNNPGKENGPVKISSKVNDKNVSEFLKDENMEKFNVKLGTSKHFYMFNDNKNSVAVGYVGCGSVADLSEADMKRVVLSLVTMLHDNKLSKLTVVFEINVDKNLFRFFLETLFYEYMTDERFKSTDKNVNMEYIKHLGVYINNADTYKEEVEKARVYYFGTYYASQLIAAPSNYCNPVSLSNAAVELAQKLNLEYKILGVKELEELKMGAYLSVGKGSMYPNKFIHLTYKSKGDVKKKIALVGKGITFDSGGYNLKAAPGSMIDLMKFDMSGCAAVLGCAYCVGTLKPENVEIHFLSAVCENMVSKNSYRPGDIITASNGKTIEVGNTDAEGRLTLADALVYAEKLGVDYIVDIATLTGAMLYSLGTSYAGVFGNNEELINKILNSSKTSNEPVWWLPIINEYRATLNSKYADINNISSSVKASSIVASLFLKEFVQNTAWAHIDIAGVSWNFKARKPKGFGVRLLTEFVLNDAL

[4] = target: Cytochrome P450 2C19 (Homo sapiens, UniProt P33261); experiment: Cytochrome panel assay with activity outcomes. Panel member name: p450-cyp2c19 Compounds with AC50 equal or less than 10 uM are considered active; type: functional; conditions: read-out: AC50
[5] = target: T2, Cytochrome P450 1A2 (Homo sapiens, UniProt P05177);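 note: PubChem cytochrome P450 panel assay, CYP1A2 panel member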
T2 sequence (P05177 whole entry): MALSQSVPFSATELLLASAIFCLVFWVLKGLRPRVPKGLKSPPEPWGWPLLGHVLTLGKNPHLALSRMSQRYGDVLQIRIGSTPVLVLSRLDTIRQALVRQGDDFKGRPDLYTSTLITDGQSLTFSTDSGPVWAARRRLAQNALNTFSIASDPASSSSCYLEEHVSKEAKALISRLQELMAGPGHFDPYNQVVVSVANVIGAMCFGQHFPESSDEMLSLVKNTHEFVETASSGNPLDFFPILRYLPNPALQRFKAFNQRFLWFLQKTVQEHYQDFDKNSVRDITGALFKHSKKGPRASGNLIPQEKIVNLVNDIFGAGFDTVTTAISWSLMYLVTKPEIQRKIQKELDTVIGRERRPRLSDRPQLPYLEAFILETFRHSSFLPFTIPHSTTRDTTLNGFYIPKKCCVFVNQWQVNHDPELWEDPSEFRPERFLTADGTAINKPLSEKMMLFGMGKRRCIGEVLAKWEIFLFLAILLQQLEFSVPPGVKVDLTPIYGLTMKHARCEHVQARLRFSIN

[6] = target: Cytochrome P450 2C9 (Homo sapiens, UniProt P11712)
[7] = HEp-2 cell cytotoxicity, dose response, cytotoxicity control for RSV inhibitor project, HTS (AID 2410); type: functional; conditions: human respiratory syncytial virus
[8] = target: Fatty acid synthase (Homo sapiens, UniProt P49327); experiment: FAS thioesterase domain inhibitors, dose response, biochemical, kinetic fluorescence intensity (AID 624326); type: functional;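 note: rate of fluorescence rise from hydrolysis of a fluorogenic O-methyl fluorescein ester substrate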
[9] = target: Luciferin 4-monooxygenase (Photinus pyralis, UniProt P08659); experiment: firefly luciferase enzyme inhibitors, dose response, biochemical, luminescence (AID 1891)
[10] = Luminescence Cell-Based Dose Confirmation HTS to Identify Inhibitors of Platelet Dense Granule Release. [Related pubchem assays: 1663 (Primary HTS), 1678 (Summary of Project)]; type: functional
[11] = target: FAD-linked sulfhydryl oxidase ALR (Homo sapiens, UniProt P55789); experiment: inhibitors of human ALR sulfhydryl oxidase, dose response, biochemical, H2O2 detection, luminescence, cherry-pick (AID 493248)
[12] = target: T3, Rac GTPase-activating protein 1 (Homo sapiens, UniProt Q9H0H5); experiment: MgcRacGAP GTPase-activating activity inhibitors, confirmation, biochemical, ADP Hunter fluorescence, primary and confirmatory (AID 624330); type: functional
T3 sequence (Q9H0H5 whole entry): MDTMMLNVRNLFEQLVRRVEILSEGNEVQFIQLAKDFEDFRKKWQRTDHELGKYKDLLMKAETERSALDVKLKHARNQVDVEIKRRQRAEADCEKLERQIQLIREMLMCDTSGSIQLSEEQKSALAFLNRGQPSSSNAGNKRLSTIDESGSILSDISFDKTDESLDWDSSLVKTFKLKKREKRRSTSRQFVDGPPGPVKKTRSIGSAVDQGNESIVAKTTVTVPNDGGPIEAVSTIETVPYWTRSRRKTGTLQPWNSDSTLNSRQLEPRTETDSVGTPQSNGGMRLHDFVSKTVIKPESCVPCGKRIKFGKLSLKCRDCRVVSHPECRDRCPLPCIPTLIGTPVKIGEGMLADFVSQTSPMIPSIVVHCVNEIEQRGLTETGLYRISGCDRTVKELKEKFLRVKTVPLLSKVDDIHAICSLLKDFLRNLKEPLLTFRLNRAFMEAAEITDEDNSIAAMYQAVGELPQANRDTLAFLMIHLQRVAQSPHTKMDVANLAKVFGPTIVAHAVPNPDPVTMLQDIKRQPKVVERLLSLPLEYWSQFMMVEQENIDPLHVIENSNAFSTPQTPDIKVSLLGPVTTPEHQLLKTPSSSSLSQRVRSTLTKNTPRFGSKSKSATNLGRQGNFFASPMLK

[13] = Luminescence Cell-Based Dose Confirmation HTS to Identify Activators of 5'UTR Stem-Loop Driven Alpha-Synuclein mRNA Translation in H4 Neuroglioblastoma Cells. [Related pubchem assays: 1829 (Project Summary), 1814 (Primary HTS)]; type: functional
[14] = Luminescence Cell-Based Dose Response HTS to Identify Activators of Luciferase Translation or Activity in H4 […] Cells. [Related pubchem assays: 1829 (Project Summary), 1814 (Primary HTS)]; type: functional
[15] = system: H4; experiment: Luminescence Cell-Based Dose Response HTS to Identify Activators of 5'UTR Stem-Loop Driven Prion Protein mRNA Translation in H4 Neuroglioblastoma Cells. [Related pubchem assays: 1829 (Project Summary), 1814 (Primary HTS)]; type: functional; conditions: Homo sapiens

Cytochrome P450 2C19, sequence (P33261 whole entry): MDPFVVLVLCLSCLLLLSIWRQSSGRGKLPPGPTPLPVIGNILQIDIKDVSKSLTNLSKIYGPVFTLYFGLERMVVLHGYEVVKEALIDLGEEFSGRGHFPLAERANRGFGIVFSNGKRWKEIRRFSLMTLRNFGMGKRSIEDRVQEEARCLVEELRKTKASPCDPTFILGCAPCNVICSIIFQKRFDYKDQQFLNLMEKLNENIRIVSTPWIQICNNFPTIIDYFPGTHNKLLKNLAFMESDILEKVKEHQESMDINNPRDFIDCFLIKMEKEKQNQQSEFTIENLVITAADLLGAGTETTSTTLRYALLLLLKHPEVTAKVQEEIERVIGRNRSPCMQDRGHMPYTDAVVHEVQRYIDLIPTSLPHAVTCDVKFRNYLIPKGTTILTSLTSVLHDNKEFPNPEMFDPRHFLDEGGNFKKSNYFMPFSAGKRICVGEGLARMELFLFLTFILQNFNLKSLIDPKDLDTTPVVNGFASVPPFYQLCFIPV
Cytochrome P450 2C9, sequence (P11712 whole entry): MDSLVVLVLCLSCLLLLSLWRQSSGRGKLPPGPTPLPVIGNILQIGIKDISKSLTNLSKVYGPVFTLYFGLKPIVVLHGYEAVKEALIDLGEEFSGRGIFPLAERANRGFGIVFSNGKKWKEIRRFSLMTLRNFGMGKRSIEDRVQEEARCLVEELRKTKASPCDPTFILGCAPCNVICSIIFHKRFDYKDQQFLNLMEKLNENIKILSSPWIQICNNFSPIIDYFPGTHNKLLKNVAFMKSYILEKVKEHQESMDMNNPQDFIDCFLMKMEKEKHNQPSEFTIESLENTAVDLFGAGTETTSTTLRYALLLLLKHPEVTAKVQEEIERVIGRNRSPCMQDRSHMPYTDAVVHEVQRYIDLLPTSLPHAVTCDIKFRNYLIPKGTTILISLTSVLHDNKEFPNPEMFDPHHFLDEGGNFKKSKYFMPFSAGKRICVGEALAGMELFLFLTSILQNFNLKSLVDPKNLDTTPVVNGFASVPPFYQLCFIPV
Luciferin 4-monooxygenase, sequence (P08659 whole entry): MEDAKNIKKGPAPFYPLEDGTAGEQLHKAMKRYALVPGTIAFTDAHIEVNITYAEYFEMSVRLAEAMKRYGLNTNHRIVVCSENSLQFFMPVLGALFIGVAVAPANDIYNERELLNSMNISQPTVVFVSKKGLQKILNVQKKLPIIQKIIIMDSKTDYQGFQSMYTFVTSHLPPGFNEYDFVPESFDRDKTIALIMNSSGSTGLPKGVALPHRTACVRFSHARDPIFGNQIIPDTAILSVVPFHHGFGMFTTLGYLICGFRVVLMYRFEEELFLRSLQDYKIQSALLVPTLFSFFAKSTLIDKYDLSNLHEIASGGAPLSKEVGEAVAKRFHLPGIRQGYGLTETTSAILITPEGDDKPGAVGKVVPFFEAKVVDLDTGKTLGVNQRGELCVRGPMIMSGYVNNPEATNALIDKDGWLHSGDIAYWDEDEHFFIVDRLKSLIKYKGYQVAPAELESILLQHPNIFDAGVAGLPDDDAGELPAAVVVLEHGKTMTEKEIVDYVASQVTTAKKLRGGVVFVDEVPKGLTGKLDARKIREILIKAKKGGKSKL
FAD-linked sulfhydryl oxidase ALR, sequence (P55789 whole entry): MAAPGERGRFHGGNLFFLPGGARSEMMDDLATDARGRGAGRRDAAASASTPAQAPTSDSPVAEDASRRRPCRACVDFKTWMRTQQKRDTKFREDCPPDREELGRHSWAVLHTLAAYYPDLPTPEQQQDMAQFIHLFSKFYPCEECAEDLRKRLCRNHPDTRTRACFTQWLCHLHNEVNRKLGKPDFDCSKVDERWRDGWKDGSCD
Fatty acid synthase, sequence (P49327 whole entry, the tested form may be a part): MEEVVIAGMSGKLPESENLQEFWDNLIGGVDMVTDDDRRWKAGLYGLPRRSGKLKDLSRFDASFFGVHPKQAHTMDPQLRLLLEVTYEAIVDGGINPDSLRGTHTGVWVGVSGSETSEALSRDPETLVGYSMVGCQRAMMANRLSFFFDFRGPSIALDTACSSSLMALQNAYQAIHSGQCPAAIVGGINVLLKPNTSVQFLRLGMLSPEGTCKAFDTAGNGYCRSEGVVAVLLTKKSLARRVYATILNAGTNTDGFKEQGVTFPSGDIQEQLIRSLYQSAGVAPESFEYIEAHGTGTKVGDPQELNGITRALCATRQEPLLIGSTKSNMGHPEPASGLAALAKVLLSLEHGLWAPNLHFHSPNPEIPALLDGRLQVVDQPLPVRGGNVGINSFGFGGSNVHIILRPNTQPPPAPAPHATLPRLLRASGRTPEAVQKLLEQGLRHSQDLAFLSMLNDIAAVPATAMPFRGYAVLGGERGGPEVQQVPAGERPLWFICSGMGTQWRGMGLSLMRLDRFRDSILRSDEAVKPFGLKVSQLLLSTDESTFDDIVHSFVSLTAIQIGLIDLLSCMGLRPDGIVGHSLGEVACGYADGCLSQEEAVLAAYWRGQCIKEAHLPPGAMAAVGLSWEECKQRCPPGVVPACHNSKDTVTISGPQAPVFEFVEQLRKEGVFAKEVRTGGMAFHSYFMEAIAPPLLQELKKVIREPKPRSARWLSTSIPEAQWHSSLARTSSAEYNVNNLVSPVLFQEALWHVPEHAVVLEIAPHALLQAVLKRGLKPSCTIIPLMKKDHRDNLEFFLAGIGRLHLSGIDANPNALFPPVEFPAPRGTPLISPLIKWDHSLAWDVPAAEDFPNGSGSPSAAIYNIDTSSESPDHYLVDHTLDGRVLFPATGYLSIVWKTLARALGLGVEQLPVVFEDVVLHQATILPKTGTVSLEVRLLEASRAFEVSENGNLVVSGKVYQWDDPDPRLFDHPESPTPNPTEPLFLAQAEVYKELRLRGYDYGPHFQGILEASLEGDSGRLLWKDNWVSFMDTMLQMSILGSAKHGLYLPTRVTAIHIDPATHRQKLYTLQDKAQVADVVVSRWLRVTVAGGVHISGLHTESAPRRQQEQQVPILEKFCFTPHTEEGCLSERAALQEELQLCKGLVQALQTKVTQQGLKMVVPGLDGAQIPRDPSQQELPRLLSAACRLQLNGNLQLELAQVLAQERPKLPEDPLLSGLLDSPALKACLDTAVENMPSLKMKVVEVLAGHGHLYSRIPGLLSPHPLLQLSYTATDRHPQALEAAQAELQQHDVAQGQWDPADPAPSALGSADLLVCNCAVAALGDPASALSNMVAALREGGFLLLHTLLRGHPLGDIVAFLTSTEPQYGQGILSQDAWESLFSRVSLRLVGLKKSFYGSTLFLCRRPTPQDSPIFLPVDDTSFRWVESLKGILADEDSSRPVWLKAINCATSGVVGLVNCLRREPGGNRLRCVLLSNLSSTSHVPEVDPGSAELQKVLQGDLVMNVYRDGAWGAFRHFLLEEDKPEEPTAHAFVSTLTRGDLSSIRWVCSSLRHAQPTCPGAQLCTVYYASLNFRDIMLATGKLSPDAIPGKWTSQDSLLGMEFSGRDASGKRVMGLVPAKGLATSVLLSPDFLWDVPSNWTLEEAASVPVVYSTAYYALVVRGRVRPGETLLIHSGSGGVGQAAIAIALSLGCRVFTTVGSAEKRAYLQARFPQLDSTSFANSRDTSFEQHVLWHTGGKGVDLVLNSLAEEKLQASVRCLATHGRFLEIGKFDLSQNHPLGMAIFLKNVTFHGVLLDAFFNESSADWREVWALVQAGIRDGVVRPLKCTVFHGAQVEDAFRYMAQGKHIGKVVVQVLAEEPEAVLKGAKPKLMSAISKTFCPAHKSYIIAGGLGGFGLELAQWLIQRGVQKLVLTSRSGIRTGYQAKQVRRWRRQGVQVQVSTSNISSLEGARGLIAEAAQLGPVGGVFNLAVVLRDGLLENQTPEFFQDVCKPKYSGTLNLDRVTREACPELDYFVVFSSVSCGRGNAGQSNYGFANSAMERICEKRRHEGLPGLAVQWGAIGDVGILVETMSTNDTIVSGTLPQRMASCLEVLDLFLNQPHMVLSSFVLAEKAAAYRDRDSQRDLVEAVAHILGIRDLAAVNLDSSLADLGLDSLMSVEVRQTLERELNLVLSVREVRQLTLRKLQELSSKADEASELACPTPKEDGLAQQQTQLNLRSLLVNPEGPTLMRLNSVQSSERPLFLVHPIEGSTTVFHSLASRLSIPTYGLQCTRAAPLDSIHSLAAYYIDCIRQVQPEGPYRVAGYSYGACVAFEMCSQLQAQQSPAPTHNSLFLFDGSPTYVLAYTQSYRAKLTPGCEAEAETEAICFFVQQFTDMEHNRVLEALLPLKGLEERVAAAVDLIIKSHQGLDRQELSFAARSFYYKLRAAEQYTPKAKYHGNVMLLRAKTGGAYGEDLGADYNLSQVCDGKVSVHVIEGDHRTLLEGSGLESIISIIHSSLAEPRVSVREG

S=C(Nc1ccc2c[nH]nc2c1)Nc1ccccc1Cl
EC50 [1]: > 350 µM (not active) | EC50 [2]: > 350 µM (not active)

COc1ccc(C2CC(=O)c3sc(N)nc3C2)cc1 (configuration not stated)
IC50 [3]: 30.1 µM (active)

CC(OC(=O)Cn1c(C(F)(F)F)nc2ccccc21)C(N)=O (configuration not stated)
AC50 [4]: 28.2 µM (inconclusive) | AC50 [5]: 25.1 µM (inconclusive) | AC50 [6]: 0.631 µM (inconclusive)

Cc1cc(=O)oc(C)c1C(=O)NCc1ccccc1
AC50 [4]: 39.8 µM (inconclusive)

CN(CC(=O)Nc1ccc(Cl)c(C(F)(F)F)c1)C(=O)CCCNC(=O)c1ccc(Cl)cc1
CC50 [7]: 2.49 µM (active)

O=C(O)c1ccccc1Nc1ccc([N+](=O)[O-])cc1C(=O)O
EC50 [1]: > 350 µM (not active) | EC50 [2]: > 350 µM (not active)

CC(C)(C)c1nc2scc(-c3cccs3)c2c(=O)o1
IC50 [8]: 3.42 µM (active)

S=C(c1ccc(-c2cc(Cl)ccc2Cl)o1)N1CCCCC1
CC50 [7]: > 50 µM (active)

Cc1ccc(NC(=O)c2nnn(-c3ccc4c(c3)OCCO4)c2N)cc1
CC50 [7]: > 50 µM (active)

CCCNC(=O)c1cc2nc(-c3ccccc3)cc(C(F)(F)F)n2n1
EC50 [1]: > 350 µM (not active) | EC50 [2]: > 350 µM (not active)

Cc1ccc(NC(=O)CNc2cc(S(=O)(=O)N3CCOCC3)ccc2NCC2CCCO2)cc1F (configuration not stated)
EC50 [9]: > 112 µM (not active) | EC50 [10]: > 112 µM (not active)

CC(C)CN(CCNC(=O)c1cn(C)c2ccc(S(=O)(=O)N3CCCC3)cc2c1=O)CC(C)C
EC50 [1]: > 350 µM (not active) | EC50 [2]: > 350 µM (not active)

COc1ccc(CCn2ccc(O)c(Cc3ccc(Cl)cc3)c2=O)cc1OC
CC50 [7]: 20 µM (active)

COc1ccc(-c2csc(NC(=O)c3cc(C)oc3C)n2)cc1OC
CC50 [7]: 26.6 µM (active)

NC(=O)c1nsc(C(=O)N(CC(=O)NC2CCCC2)c2cnc3ccccc3c2)c1N
EC50 [9]: > 112 µM (not active) | EC50 [10]: 17.1 µM (active)

O=C(NN=Cc1ccc(O)cc1)c1cc[n+](Cc2ccccc2)cc1
AC50 [11]: 2.05 µM (active) | IC50 [12]: 137 µM (active)

Cc1ccc(NC(=O)NC2=NN(c3ccccc3)C(=O)/C2=C2/CCCN2C)cc1
EC50 [13]: 32.5 µM (active) | EC50 [14]: 18.1 µM (active) | EC50 [15]: 14.4 µM (active)

CCS(=O)(=O)N1CCC(C(=O)NCc2cccnc2)CC1
AC50 [4]: 22.4 µM (inconclusive) | AC50 [6]: 11.2 µM (inconclusive)

Cc1ccccc1-c1cc(C(=O)n2cccn2)c2cc(Cl)ccc2n1
AC50 [4]: 7.08 µM (inconclusive) | AC50 [5]: 17.8 µM (inconclusive)
